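Protocol summary: plate cells (96-well), add compound at 5 concentrations, incubate 48 h, interpolate endpoints linearly. GI50 = concentration required for 50% inhibition of growth. TGI marks complete inhibition of growth.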
Legend:
Test in all cases: NCI anticancer screen, dose series, 48 h
[1] = system: OVCAR-8 ovarian
[2] = system: T-47D breast
[3] = system: A498 renal
[4] = system: MDA-MB-231 breast
[5] = system: ACHN renal
[6] = system: HOP-92 NSCLC
[7] = system: MALME-3M melanoma
[8] = system: COLO 205 colon
[9] = system: PC-3 prostate
[10] = system: OVCAR-5 ovarian
[11] = system: SK-OV-3 ovarian
[12] = system: HCC-2998 colon
[13] = system: IGROV1 ovarian
[14] = system: MCF7 breast
[15] = system: CCRF-CEM leukemia
[16] = system: HCT-116 colon
[17] = system: A549 NSCLC
[18] = system: 786-0 renal
[19] = system: UACC-257 melanoma
[20] = system: RXF 393 renal
[21] = system: HL-60(TB) leukemia
[22] = system: UO-31 renal
[23] = system: SK-MEL-2 melanoma
[24] = system: SF-539 CNS
[25] = system: NCI/ADR-RES ovarian
[26] = system: U251 CNS
[27] = system: MDA-N
[28] = system: SF-295 CNS
[29] = system: KM12 colon
[30] = system: CAKI-1 renal
[31] = system: SNB-19 CNS
[32] = system: TK-10 renal
[33] = system: HOP-62 NSCLC
[34] = system: NCI-H460 lung
[35] = system: SNB-75 CNS
[36] = system: SW-620 colon
[37] = system: OVCAR-4 ovarian
[38] = system: HCT-15 colon
[39] = system: MOLT-4 leukemia
[40] = system: HT29 colon
[41] = system: MDA-MB-435
[42] = system: HS 578T breast
[43] = system: DU-145 prostate
[44] = system: NCI-H23 lung
[45] = system: SR leukemia
[46] = system: OVCAR-3 ovarian
[47] = system: SK-MEL-28 melanoma
[48] = system: M14 melanoma
[49] = system: SN12C renal
[50] = system: SK-MEL-5 melanoma
[51] = system: EKVX NSCLC
[52] = system: UACC-62 melanoma
[53] = system: LOX IMVI melanoma
[54] = system: SF-268 CNS
[55] = system: RPMI-8226 leukemia
[56] = system: NCI-H522 lung
[57] = system: NCI-H226 lung
[58] = system: K-562 leukemia

SMILES: C[C@]1(O)CC[C@H]2[C@@H]3CCc4cc(O)ccc4[C@H]3CC[C@@]21C
- TGI [1]: 64.8 µM
- TGI [2]: > 100 µM
- TGI [3]: 9.61 µM
- TGI [4]: 88 µM
- TGI [5]: > 100 µM
- TGI [6]: 67.8 µM
- TGI [7]: 0.948 µM
- TGI [8]: > 100 µM
- TGI [9]: > 100 µM
- TGI [10]: > 100 µM
- TGI [11]: > 100 µM
- TGI [12]: 0.937 µM
- TGI [13]: 27.8 µM
- TGI [14]: > 100 µM
- TGI [15]: 80.1 µM
- GI50 [16]: 0.703 µM
- TGI [16]: > 100 µM
- TGI [17]: 77.6 µM
- TGI [18]: > 100 µM
- TGI [19]: 77.1 µM
- TGI [20]: 4.05 µM
- TGI [21]: 3.49 µM
- TGI [22]: 61.2 µM
- TGI [23]: > 100 µM
- TGI [24]: 2.27 µM
- TGI [25]: > 100 µM
- TGI [26]: > 100 µM
- TGI [27]: 0.651 µM
- TGI [28]: 13 µM
- TGI [29]: 12.1 µM
- TGI [30]: > 100 µM
- TGI [31]: > 100 µM
- TGI [32]: 7.51 µM
- GI50 [33]: 18.4 µM
- TGI [33]: > 100 µM
- TGI [34]: > 100 µM
- TGI [35]: > 100 µM
- TGI [36]: > 100 µM
- TGI [37]: > 100 µM
- TGI [38]: > 100 µM
- TGI [39]: > 100 µM
- TGI [40]: > 100 µM
- TGI [41]: 0.761 µM
- TGI [42]: 4.98 µM
- GI50 [43]: 1.98 µM
- TGI [43]: 8.25 µM
- TGI [44]: > 100 µM
- TGI [45]: 0.668 µM
- GI50 [46]: 0.663 µM
- TGI [46]: 42.9 µM
- TGI [47]: > 100 µM
- TGI [48]: 62.4 µM
- GI50 [49]: 10.2 µM
- TGI [49]: > 100 µM
- TGI [50]: 11.7 µM
- TGI [51]: 9.08 µM
- GI50 [52]: 1.48 µM
- TGI [52]: 37.5 µM
- TGI [53]: 72.5 µM
- TGI [54]: 68.3 µM
- TGI [55]: 4.81 µM
- TGI [56]: 5.08 µM

SMILES: O=C(C=P(c1ccccc1)(c1ccccc1)c1ccccc1)c1ccc(-c2cccc([N+](=O)[O-])c2)cc1
- TGI [2]: 27.1 µM
- TGI [3]: 9.11 µM
- TGI [4]: 8 µM
- TGI [5]: 7.87 µM
- TGI [6]: 6.92 µM
- TGI [7]: 9.31 µM
- TGI [8]: 3.31 µM
- TGI [9]: 18.6 µM
- TGI [10]: 14.9 µM
- TGI [11]: 18.6 µM
- TGI [12]: 4.75 µM
- TGI [14]: 10.6 µM
- TGI [15]: 7.25 µM
- TGI [16]: 6.24 µM
- TGI [17]: 12.7 µM
- TGI [18]: 20.8 µM
- TGI [19]: 15.8 µM
- TGI [20]: 9.34 µM
- TGI [21]: 5.08 µM
- TGI [22]: 4.8 µM
- TGI [23]: 3.78 µM
- TGI [24]: 15.3 µM
- TGI [25]: 25.1 µM
- TGI [26]: 13.2 µM
- TGI [27]: 9.09 µM
- TGI [28]: > 100 µM
- TGI [29]: 20 µM
- TGI [30]: 9.38 µM
- TGI [31]: > 100 µM
- TGI [32]: 55.9 µM
- TGI [33]: 27.6 µM
- TGI [34]: 4.27 µM
- TGI [35]: 6.86 µM
- TGI [36]: 14.5 µM
- TGI [37]: 9.52 µM
- TGI [57]: 19.9 µM
- TGI [38]: 12.7 µM
- TGI [39]: 5.55 µM
- TGI [40]: 3.13 µM
- TGI [41]: 5.4 µM
- TGI [42]: 22.4 µM
- TGI [43]: 35.1 µM
- TGI [44]: 21.2 µM
- TGI [45]: 8.09 µM
- TGI [46]: 9.69 µM
- TGI [47]: 18.2 µM
- TGI [48]: 4.64 µM
- TGI [49]: 12 µM
- TGI [50]: 5.91 µM
- TGI [51]: 11.7 µM
- TGI [52]: 15.9 µM
- TGI [53]: 4.15 µM
- TGI [54]: > 100 µM
- TGI [55]: 3.98 µM
- TGI [58]: 7.98 µM

From PubChem BioAssay (NCI)
